# Experimental data published in PubChem BioAssay AID2060498 (Molecular Pharmacology Branch, DTP, NCI, 2025).
# Tested on: 171881-019-R-J1-PDC tumor spheroids, viability
# Experiment: Anticancer human tumor 171881-019-R-J1-PDC patient-derived invasive breast carcinoma cell line growth inhibition [GQUAD]
# Settings: spheroids with HUVEC and MSC; for IC50: curve of first compound; for viability, T/C: stronger effect = lower value
# Method in brief: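 Tumor cells were grown as complex spheroids with HUVEC endothelial cells and mesenchymal stem cells as stroma. G-quadruplex stabilizers were combined with targeted agents over half-log dilutions from near the clinical Cmax, or from 10 microM.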
# [1] = second compound 0.0316 µM, first compound 0.0316 µM
# [2] = second compound 0.0316 µM, first compound 0.1 µM
# [3] = second compound 0.0316 µM, first compound 0.316 µM
# [4] = second compound 0.0316 µM, first compound 1 µM
# [5] = second compound 0.0316 µM, first compound 3.16 µM
# [6] = second compound 0.0316 µM, first compound 10 µM
# [7] = second compound 0.1 µM, first compound 0.0316 µM
# [8] = second compound 0.1 µM, first compound 0.1 µM
# [9] = second compound 0.1 µM, first compound 0.316 µM
# [10] = second compound 0.1 µM, first compound 1 µM
# [11] = second compound 0.1 µM, first compound 3.16 µM
# [12] = second compound 0.1 µM, first compound 10 µM
# [13] = second compound 0.316 µM, first compound 0.0316 µM
# [14] = second compound 0.316 µM, first compound 0.1 µM
# [15] = second compound 0.316 µM, first compound 0.316 µM
# [16] = second compound 0.316 µM, first compound 1 µM
# [17] = second compound 0.316 µM, first compound 3.16 µM
# [18] = second compound 0.316 µM, first compound 10 µM
# [19] = second compound 1 µM, first compound 0.0316 µM
# [20] = second compound 1 µM, first compound 0.1 µM
# [21] = second compound 1 µM, first compound 0.316 µM
# [22] = second compound 1 µM, first compound 1 µM
# [23] = second compound 1 µM, first compound 3.16 µM
# [24] = second compound 1 µM, first compound 10 µM
# [25] = second compound 3.16 µM, first compound 0.0316 µM
# [26] = second compound 3.16 µM, first compound 0.1 µM
# [27] = second compound 3.16 µM, first compound 0.316 µM
# [28] = second compound 3.16 µM, first compound 1 µM
# [29] = second compound 3.16 µM, first compound 3.16 µM
# [30] = second compound 3.16 µM, first compound 10 µM
# [31] = second compound 10 µM, first compound 0.0316 µM
# [32] = second compound 10 µM, first compound 0.1 µM
# [33] = second compound 10 µM, first compound 0.316 µM
# [34] = second compound 10 µM, first compound 1 µM
# [35] = second compound 10 µM, first compound 3.16 µM
# [36] = second compound 10 µM, first compound 10 µM
# 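Further: spheroids exposed to compounds for 7 days.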
# 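Wherever viability, T/C is given: 100% = DMSO vehicle control viability.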
smiles,measurement,setting,value
Cc1cccc(N(C)C(=O)C2C(O)CCN2c2nc(C)cc(C(F)(F)F)c2C#N)c1 (centres undefined) + CN(C)c1ccc(Nc2c3ccc(NC(=O)CCN4CCCC4)cc3nc3cc(NC(=O)CCN4CCCC4)ccc23)cc1,IC50,second compound 0.0316 µM,> 10000 nM
same,IC50,second compound 0.1 µM,> 10000 nM
same,IC50,second compound 0.316 µM,7840 nM
same,IC50,second compound 1 µM,< 31.6 nM
same,IC50,second compound 3.16 µM,< 31.6 nM
same,IC50,second compound 10 µM,< 31.6 nM
same,"viability, T/C",[1],87.6%
same,"viability, T/C",[2],91.2%
same,"viability, T/C",[3],103%
same,"viability, T/C",[4],101%
same,"viability, T/C",[5],87.6%
same,"viability, T/C",[6],79.2%
same,"viability, T/C",[7],99.2%
same,"viability, T/C",[8],102%
same,"viability, T/C",[9],96.4%
same,"viability, T/C",[10],105%
same,"viability, T/C",[11],85.6%
same,"viability, T/C",[12],75.2%
same,"viability, T/C",[13],88.3%
same,"viability, T/C",[14],93.5%
same,"viability, T/C",[15],85.2%
same,"viability, T/C",[16],75.1%
same,"viability, T/C",[17],75.7%
same,"viability, T/C",[18],43.3%
same,"viability, T/C",[19],26.3%
same,"viability, T/C",[20],23.1%
same,"viability, T/C",[21],31.7%
same,"viability, T/C",[22],23.1%
same,"viability, T/C",[23],19.1%
same,"viability, T/C",[24],9.15%
same,"viability, T/C",[25],1.62%
same,"viability, T/C",[26],1.75%
same,"viability, T/C",[27],1.5%
same,"viability, T/C",[28],1.54%
same,"viability, T/C",[29],1.07%
same,"viability, T/C",[30],1.26%
same,"viability, T/C",[31],0.45%
same,"viability, T/C",[32],0.54%
same,"viability, T/C",[33],0.26%
same,"viability, T/C",[34],0.48%
same,"viability, T/C",[35],0.65%
same,"viability, T/C",[36],0.44%
O=C(NO)c1cnc(N2CCN(S(=O)(=O)c3ccc4ccccc4c3)CC2)nc1 + Cc1cnc(CNC(=O)c2c(=O)c3ccc(N4CCCN(C)CC4)nc3n3c2sc2ccccc23)cn1,IC50,second compound 0.0316 µM,167 nM
same,IC50,second compound 0.1 µM,194 nM
same,IC50,second compound 0.316 µM,160 nM
same,IC50,second compound 1 µM,148 nM
same,IC50,second compound 3.16 µM,118 nM
same,IC50,second compound 10 µM,111 nM
same,"viability, T/C",[1],81.5%
same,"viability, T/C",[2],60.9%
same,"viability, T/C",[3],36.3%
same,"viability, T/C",[4],2.76%
same,"viability, T/C",[5],0.43%
same,"viability, T/C",[6],0.3%
same,"viability, T/C",[7],75.5%
same,"viability, T/C",[8],68.2%
same,"viability, T/C",[9],36.2%
same,"viability, T/C",[10],2.32%
same,"viability, T/C",[11],0.07%
same,"viability, T/C",[12],0.41%
same,"viability, T/C",[13],60.8%
same,"viability, T/C",[14],61.7%
same,"viability, T/C",[15],33.8%
same,"viability, T/C",[16],1.48%
same,"viability, T/C",[17],0.32%
same,"viability, T/C",[18],0.45%
same,"viability, T/C",[19],67%
same,"viability, T/C",[20],57.1%
same,"viability, T/C",[21],32.3%
same,"viability, T/C",[22],0.14%
same,"viability, T/C",[23],0.48%
same,"viability, T/C",[24],0.09%
same,"viability, T/C",[25],60%
same,"viability, T/C",[26],51.9%
same,"viability, T/C",[27],27.6%
same,"viability, T/C",[28],0.22%
same,"viability, T/C",[29],0.63%
same,"viability, T/C",[30],0.36%
same,"viability, T/C",[31],52.8%
same,"viability, T/C",[32],52.5%
same,"viability, T/C",[33],23.7%
same,"viability, T/C",[34],0.3%
same,"viability, T/C",[35],0.83%
same,"viability, T/C",[36],0.13%
